Test systems include 786-0 renal; BT-549 breast; COLO 205 colon; DU-145 prostate; HCC-2998 colon; MDA-MB-231 breast; NCI-H460 lung; RPMI-8226 leukemia; RXF 393 renal; SK-OV-3 ovarian; U251 CNS.
Common to all, as to assay: DTP human tumour cell line panel, 48 h

Each structure is given as a SMILES string.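 Step 1: Grow cells in 96-well plates. Step 2: Expose to compound for 48 hours at 5 concentrations. Step 3: Interpolate endpoints linearly; if unreached, use highest concentration. TGI marks complete inhibition of growth.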

Consider `CN1CCc2c([nH]c3ccccc23)C1`, for which the TGI in the experiment with 786-0 renal, in the experiment on BT-549 breast, in the experiment on COLO 205 colon, in the experiment on DU-145 prostate, in the experiment with HCC-2998 colon and in the experiment with MDA-MB-231 breast was greater than 100 µM each time. Also, the TGI in the experiment with NCI-H460 lung, with RPMI-8226 leukemia, in the experiment on RXF 393 renal, with SK-OV-3 ovarian and in the experiment with U251 CNS was greater than 100 µM each time.
Consider `Cc1ccc2c(c1)C(=S)N1CSCC1c1nncn1-2` (configuration not stated), for which the TGI in the experiment with 786-0 renal, in the experiment on BT-549 breast, in the experiment with COLO 205 colon, with DU-145 prostate, with HCC-2998 colon and in the experiment on MDA-MB-231 breast was greater than 100 µM each time. The TGI with NCI-H460 lung, in the experiment with RPMI-8226 leukemia, in the experiment with RXF 393 renal, in the experiment on SK-OV-3 ovarian and in the experiment with U251 CNS was greater than 100 µM in each case.
As to `O=C1Sc2cc3ccccc3cc2C(=O)Sc2ccc(Br)cc21`, the TGI came out at 5.63 µM with 786-0 renal; 12.1 µM with BT-549 breast; 34.9 µM with COLO 205 colon; 16.9 µM with DU-145 prostate; 19.3 µM in the experiment with HCC-2998 colon; 12.2 µM in the experiment on MDA-MB-231 breast. The concentration for total growth inhibition (TGI) in the experiment with NCI-H460 lung is 24.2 µM; in the experiment on RPMI-8226 leukemia it was greater than 100 µM; in the experiment with RXF 393 renal, 7.88 µM; in the experiment with SK-OV-3 ovarian, 29.3 µM; in the experiment on U251 CNS, 5.27 µM.
Regarding `COc1cc(C2c3cc4c(cc3OC(N3CCCCC3)C2C)OCO4)cc(OC)c1O` (configuration not stated), the concentration for total growth inhibition (TGI) in the experiment with 786-0 renal is 27.7 µM; with BT-549 breast it was 90.5 µM; in the experiment on COLO 205 colon, 38.6 µM; in the experiment on DU-145 prostate it was 49.6 µM; with HCC-2998 colon, 32.7 µM; with MDA-MB-231 breast it was 28.1 µM. For the same compound, the TGI is 23.3 µM with NCI-H460 lung; greater than 76.3 µM in the experiment on RPMI-8226 leukemia; greater than 100 µM in the experiment on RXF 393 renal; 19.9 µM in the experiment with SK-OV-3 ovarian; greater than 64.6 µM in the experiment with U251 CNS.
As for `CC1CC(OP(=O)(OCc2ccccc2)OCc2ccccc2)[C@@H](OCc2ccccc2)C(OCc2ccccc2)C1OCc1ccccc1` (some centres not stated), the TGI with 786-0 renal, in the experiment on BT-549 breast, with COLO 205 colon, in the experiment with DU-145 prostate, in the experiment on HCC-2998 colon and in the experiment with MDA-MB-231 breast was greater than 100 µM throughout. The TGI is greater than 100 µM in the experiment with NCI-H460 lung; greater than 100 µM with RPMI-8226 leukemia; 9.8 µM in the experiment with RXF 393 renal; greater than 100 µM in the experiment on SK-OV-3 ovarian; greater than 100 µM in the experiment with U251 CNS.
`C[C@H]1[C@H]2[C@H]3CC[C@@H]4[C@@]5(C)CC[C@H](O)C(C)(C)[C@@H]5CC[C@@]4(C)[C@]3(C)C[C@H](O)[C@@]2(C)C[C@H]2O[C@]21C`: the concentration for total growth inhibition (TGI) with 786-0 renal came to 45.1 µM; in the experiment on BT-549 breast, 41.5 µM; in the experiment with COLO 205 colon, 58.7 µM; with DU-145 prostate, 31.5 µM; in the experiment on HCC-2998 colon, 37.4 µM; in the experiment on MDA-MB-231 breast, 36.9 µM. For the same compound, the TGI is 40.1 µM in the experiment with NCI-H460 lung; greater than 100 µM with RPMI-8226 leukemia; 35.1 µM in the experiment on RXF 393 renal; 39.3 µM in the experiment on SK-OV-3 ovarian; 33.7 µM in the experiment with U251 CNS.
`CCN(CC)CCNc1ccc2nnn3c4ccc(OCCN(CC)CC)cc4c(=O)c1c23`: the TGI in the experiment with 786-0 renal, in the experiment on BT-549 breast, with COLO 205 colon, with DU-145 prostate, with HCC-2998 colon and in the experiment with MDA-MB-231 breast was greater than 100 µM throughout. For the same compound, the TGI in the experiment on NCI-H460 lung, in the experiment on RPMI-8226 leukemia, in the experiment on RXF 393 renal, in the experiment on SK-OV-3 ovarian and in the experiment on U251 CNS was greater than 100 µM each time.
As for `O=c1[nH]cnc2c1cnn2Cc1cn(CCCCO)nn1`, the TGI in the experiment with 786-0 renal, in the experiment with BT-549 breast, in the experiment on COLO 205 colon, in the experiment with DU-145 prostate, with HCC-2998 colon and in the experiment on MDA-MB-231 breast was greater than 100 µM each time. For the same compound, the total growth inhibition concentration (TGI) with NCI-H460 lung, with RPMI-8226 leukemia, in the experiment with RXF 393 renal, in the experiment on SK-OV-3 ovarian and in the experiment with U251 CNS was greater than 100 µM in each case.
For the compound `Cc1ccc(C2SCC(=O)N2c2ccc(-n3c(-c4ccccc4)nc4ccccc4c3=O)cc2)cc1` (configuration not stated), the TGI in the experiment on 786-0 renal was 74.1 µM; in the experiment on BT-549 breast it was 54.7 µM; with COLO 205 colon, greater than 100 µM; with DU-145 prostate, greater than 100 µM; in the experiment on HCC-2998 colon it was 63.1 µM; in the experiment on MDA-MB-231 breast, 39.6 µM. In addition, the total growth inhibition concentration (TGI) is 27.6 µM with NCI-H460 lung; 55.1 µM in the experiment with RPMI-8226 leukemia; 91.3 µM with RXF 393 renal; 40.5 µM with SK-OV-3 ovarian; 35 µM with U251 CNS.
Consider `COC(=O)C1=C(OC(=O)/C(=C/c2ccc(Cl)cc2)c2ccc(Cl)cc2)C(C(=O)OC)[C@@]2(O)[C@@H](C(=O)OC)[C@H](C)C[C@@H]1[C@@H]2C(=O)OC` (some centres not stated), for which the concentration for total growth inhibition (TGI) in the experiment on 786-0 renal, with BT-549 breast, in the experiment with COLO 205 colon, in the experiment on DU-145 prostate, in the experiment on HCC-2998 colon and in the experiment with MDA-MB-231 breast was greater than 100 µM each time. Moreover, the concentration for total growth inhibition (TGI) in the experiment with NCI-H460 lung, in the experiment on RPMI-8226 leukemia, in the experiment with RXF 393 renal, in the experiment on SK-OV-3 ovarian and with U251 CNS was greater than 100 µM throughout.
`Cc1ccc(S(=O)(=O)c2[nH]cc(/C(=C\C3CCCCC3)[N+](=O)[O-])c2C2CCCCC2)cc1`: the TGI is 0.442 µM in the experiment on 786-0 renal; 0.813 µM in the experiment with BT-549 breast; 0.602 µM in the experiment with COLO 205 colon; 1.49 µM in the experiment with DU-145 prostate; 0.485 µM in the experiment with HCC-2998 colon; 0.515 µM with MDA-MB-231 breast. The concentration for total growth inhibition (TGI) with NCI-H460 lung is 2.99 µM; with RPMI-8226 leukemia, 0.715 µM; with RXF 393 renal, 0.407 µM; in the experiment with SK-OV-3 ovarian it was greater than 26.9 µM; with U251 CNS, 4.56 µM.
Consider `O=C1Nc2cccc(Cl)c2/C1=C\c1c(Cl)nc2n1CCS2`, for which the TGI in the experiment with 786-0 renal, with BT-549 breast, in the experiment on COLO 205 colon, with DU-145 prostate, in the experiment with HCC-2998 colon and in the experiment with MDA-MB-231 breast was greater than 100 µM in each case. Also, the total growth inhibition concentration (TGI) in the experiment with NCI-H460 lung, in the experiment on RPMI-8226 leukemia, in the experiment with RXF 393 renal, in the experiment on SK-OV-3 ovarian and with U251 CNS was greater than 100 µM in each case.

Source of the values: PubChem BioAssay (NCI).
